ChEMBL document CHEMBL1201862, “PubChem BioAssay data set” (2004)
Active and inactive are the calls of the source.

Experiments:
[1] = target: T1, fMet-Leu-Phe receptor (Homo sapiens, UniProt P21462); assay: formyl peptide receptor binders – dose response (AID 519); type: functional
T1 sequence (P21462 whole entry): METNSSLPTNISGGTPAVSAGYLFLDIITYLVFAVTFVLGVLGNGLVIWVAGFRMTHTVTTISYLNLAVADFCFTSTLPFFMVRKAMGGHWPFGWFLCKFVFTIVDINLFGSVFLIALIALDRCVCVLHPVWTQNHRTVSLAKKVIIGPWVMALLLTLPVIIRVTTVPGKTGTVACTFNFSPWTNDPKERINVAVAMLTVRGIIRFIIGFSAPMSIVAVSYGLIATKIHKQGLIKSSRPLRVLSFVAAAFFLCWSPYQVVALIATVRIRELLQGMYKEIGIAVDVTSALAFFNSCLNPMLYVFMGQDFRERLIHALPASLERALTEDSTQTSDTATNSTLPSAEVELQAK

[2] = target: Mitogen-activated protein kinase 10 (Homo sapiens, UniProt P53779); assay: Dose response biochemical screening assay for inhibitors of c-Jun N-Terminal Kinase 3 (JNK3). [Related pubchem assays: 746 ]
[3] = cells
[4] = target: T2, Protein skinhead-1 (Caenorhabditis elegans, UniProt P34707); type: functional
T2 sequence (P34707 whole entry): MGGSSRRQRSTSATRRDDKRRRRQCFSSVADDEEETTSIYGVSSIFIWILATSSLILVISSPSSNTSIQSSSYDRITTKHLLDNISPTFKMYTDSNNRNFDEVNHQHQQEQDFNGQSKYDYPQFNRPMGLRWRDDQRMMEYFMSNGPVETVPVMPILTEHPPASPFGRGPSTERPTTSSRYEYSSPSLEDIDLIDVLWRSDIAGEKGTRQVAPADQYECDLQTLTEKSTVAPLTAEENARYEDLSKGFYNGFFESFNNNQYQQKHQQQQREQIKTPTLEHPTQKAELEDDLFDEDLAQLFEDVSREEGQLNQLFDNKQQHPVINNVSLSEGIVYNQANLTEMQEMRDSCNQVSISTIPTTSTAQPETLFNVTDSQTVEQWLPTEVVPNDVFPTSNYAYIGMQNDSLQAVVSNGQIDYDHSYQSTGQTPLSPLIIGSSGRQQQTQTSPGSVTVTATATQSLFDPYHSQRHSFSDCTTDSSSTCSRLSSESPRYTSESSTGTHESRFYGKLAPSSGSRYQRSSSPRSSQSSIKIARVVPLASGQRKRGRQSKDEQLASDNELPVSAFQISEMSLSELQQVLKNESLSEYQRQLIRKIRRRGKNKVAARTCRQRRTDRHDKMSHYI

[5] = target: Major prion protein (Homo sapiens, UniProt P04156); type: functional, cell-based
[6] = viability loss in human Jurkat cells – cell-based, luminescence, cytotoxicity control for P. falciparum gametocyte viability project, dose response (AID 1117277); type: functional;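 also: potency reflects loss of cellular ATP meaning fewer viable cells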
[7] = viability inhibitors of stage V gametocytes – luminescence, dose response (AID 1117278); type: functional, cell-based;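 also: gametocytes exposed to compound for 24 hours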
[8] = target: Cytochrome P450 3A4 (Homo sapiens, UniProt P08684);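 also: CYP3A4 tested as one member of a cytochrome P450 panel screen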
[9] = target: T3, Aryl hydrocarbon receptor (Homo sapiens, UniProt P35869); assay: Luminescence-based cell-based high throughput dose response assay for activators of the Aryl Hydrocarbon Receptor (AHR). [Related pubchem assays: 2796 (Primary screen (AHR activators in singlicate)), 2845 (Confirmation screen (AHR activators in triplicate)), 434939 (Counterscreen (PXR activators in triplicate)), 2804 (Summary (AHR activators))]; type: ADME
T3 sequence (P35869 whole entry): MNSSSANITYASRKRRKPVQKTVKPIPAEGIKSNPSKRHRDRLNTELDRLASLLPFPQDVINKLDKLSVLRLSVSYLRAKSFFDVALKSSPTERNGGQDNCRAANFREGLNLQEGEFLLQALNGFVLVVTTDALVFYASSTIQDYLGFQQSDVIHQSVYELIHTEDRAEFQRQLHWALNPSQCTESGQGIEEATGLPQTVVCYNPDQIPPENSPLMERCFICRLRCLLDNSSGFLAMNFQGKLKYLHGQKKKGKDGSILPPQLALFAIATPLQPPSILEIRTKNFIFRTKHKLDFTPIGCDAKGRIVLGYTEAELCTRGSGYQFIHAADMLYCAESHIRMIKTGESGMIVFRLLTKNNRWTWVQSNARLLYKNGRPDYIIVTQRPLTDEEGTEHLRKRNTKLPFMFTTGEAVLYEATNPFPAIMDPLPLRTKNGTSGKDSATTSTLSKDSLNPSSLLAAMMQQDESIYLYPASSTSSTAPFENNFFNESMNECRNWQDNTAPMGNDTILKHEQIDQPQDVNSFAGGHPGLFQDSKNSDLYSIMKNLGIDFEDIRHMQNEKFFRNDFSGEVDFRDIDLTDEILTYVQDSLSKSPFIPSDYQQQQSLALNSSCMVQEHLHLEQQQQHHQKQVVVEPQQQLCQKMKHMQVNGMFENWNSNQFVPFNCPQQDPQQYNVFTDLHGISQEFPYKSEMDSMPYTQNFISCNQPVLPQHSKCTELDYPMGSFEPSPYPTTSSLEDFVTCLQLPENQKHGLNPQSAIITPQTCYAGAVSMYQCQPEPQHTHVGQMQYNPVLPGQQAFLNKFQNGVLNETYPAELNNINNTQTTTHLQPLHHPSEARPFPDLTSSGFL

[10] = cells; remark: listed apart in the source
[11] = target: T4, Oxysterols receptor LXR-beta (Homo sapiens, UniProt P55055); type: functional, cell-based;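 also: Cell-based luminescence dose-response assay of agonist activity at LXR, run as a confirmatory counterscreen to a daf-12 agonist screen; HEK293 cells with Gal4-LXR fusion and GAL4-driven luciferase reporter; agonist potency from rising luciferase signal of a Gal4-LXR reporter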
T4 sequence (P55055 whole entry): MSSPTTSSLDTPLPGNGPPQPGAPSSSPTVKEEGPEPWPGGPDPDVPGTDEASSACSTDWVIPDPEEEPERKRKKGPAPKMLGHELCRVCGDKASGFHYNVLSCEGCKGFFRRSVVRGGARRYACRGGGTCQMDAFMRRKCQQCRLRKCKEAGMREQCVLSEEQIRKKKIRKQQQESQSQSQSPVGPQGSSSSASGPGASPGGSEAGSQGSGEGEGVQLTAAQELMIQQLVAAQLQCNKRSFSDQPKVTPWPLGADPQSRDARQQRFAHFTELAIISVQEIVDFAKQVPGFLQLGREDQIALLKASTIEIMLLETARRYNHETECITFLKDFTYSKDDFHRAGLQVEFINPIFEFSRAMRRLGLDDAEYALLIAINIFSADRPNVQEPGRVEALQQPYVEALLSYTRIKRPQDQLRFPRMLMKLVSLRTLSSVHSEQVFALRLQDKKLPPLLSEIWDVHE

[12] = Luminescence Cell-Based Dose Response to Identify Activators of 5'UTR Stem-Loop Driven Prion Protein mRNA Translation in H4-C Neuroglioblastoma Cells. [Related pubchem assays: 1829 (Project Summary), 1814 (Primary HTS)]; type: functional
[13] = Luminescence Cell-Based Dose Confirmation to Identify Activators of 5'UTR Stem-Loop Driven Alpha-Synuclein mRNA Translation in H4 Neuroglioblastoma Cells. [Related pubchem assays: 1829 (Project Summary), 1814 (Primary HTS)]; type: functional
[14] = tested on: H4; assay: Luminescence Cell-Based Dose Response HTS to Identify Activators of 5'UTR Stem-Loop Driven Prion Protein mRNA Translation in H4 Neuroglioblastoma Cells. [Related pubchem assays: 1829 (Project Summary), 1814 (Primary HTS)]; type: functional; settings: Homo sapiens
[15] = Luminescence Cell-Based Dose Confirmation HTS to Identify Activators of 5'UTR Stem-Loop Driven Alpha-Synuclein mRNA Translation in H4 Neuroglioblastoma Cells. [Related pubchem assays: 1829 (Project Summary), 1814 (Primary HTS)]; type: functional
[16] = Luminescence Cell-Based Dose Response HTS to Identify Activators of Luciferase Translation or Activity in H4 […] Cells. [Related pubchem assays: 1829 (Project Summary), 1814 (Primary HTS)]; type: functional
[17] = Luminescence Cell-Based Dose Response to Identify Activators of Luciferase Translation or Activity in H4-C Neuroglioblastoma Cells. [Related pubchem assays: 1829 (Project Summary), 1814 (Primary HTS)]; type: functional
[18] = off-target signal loss in HeLa-CEM21 co-culture – HeLa F-luc CTL cells, cherry-picked, counter-screen for HIV-1 Env fusion inhibitor project, dose response (AID 652040); type: functional, cell-based;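 also: potency for signal decrease marking cytotoxic or nonspecific inhibition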
[19] = viability loss in CEM21 cells – cell-based, CellTiter-Glo luminescence, cherry-picked, cytotoxicity control for viral fusion inhibitor project, dose response (AID 652042); type: functional;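 also: potency for signal decrease meaning cytotoxicity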
[20] = blockers of HIV-1 ZM109 envelope-driven cell-cell fusion – HeLa effector, CEM target cells, luciferase, cherry-pick, dose response (AID 652058); type: functional, cell-based;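 also: luciferase signal from HIV-1 Env mediated cell-cell fusion of effector and target cells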
[21] = blockers of HIV-1 envelope-mediated cell-cell fusion – cherry-pick, dose response (AID 652057); type: functional, cell-based
[22] = HIV-1 AD8 envelope cell-cell fusion blockers – cherry-pick, dose response (AID 652062); type: functional, cell-based;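 also: luciferase signal from cell-cell fusion driven by HIV-1 clade B AD8 Env; potency is for inhibitors of fusion seen as a drop in luminescence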
[23] = T. cruzi growth inhibition in host cells, dose response, cell-based, plate reader, dry powder, set 2 (AID 652275); type: functional
[24] = viability of PTEN-deleted HCT116 cells – cell-based, HCT116 PTEN knockout, dose response (AID 1047); type: functional;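 also: HCT116 colon tumor cells with PTEN knocked out; cells exposed to compound for 60 hours before readout; potency for loss of cell viability measured by luminescence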
[25] = viability of HCT116 lacking mutant beta-catenin – cell-based, human colon tumor, dose response (AID 1045); type: functional;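 also: HCT116 colon tumor cells with beta catenin knocked out; cells exposed to compound for 60 hours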
[26] = target: T5, Luciferin 4-monooxygenase (Photinus pyralis, UniProt P08659); assay: inhibition of purified Photinus pyralis luciferase – biochemical, luminescence, dose response (AID 1891)
[27] = tested on: HT-1080; assay: HT1080 cell viability loss – fluorescence readout (AID 620); type: functional, cell-based; settings: Homo sapiens
[28] = Luminescence Cell-Based Dose Confirmation HTS to Identify Inhibitors of Platelet Dense Granule Release. [Related pubchem assays: 1663 (Primary HTS), 1678 (Summary of Project)]; type: functional
[29] = target: T5, Luciferin 4-monooxygenase; assay: Counter Screen for Luciferase-based Assay Positives. [Related pubchem assays: 620, 618, 411 ]

CCCOc1ccc(C2C(C(=O)c3ccc(C)o3)=C(O)C(=O)N2Cc2cccnc2)cc1 (stereo not given)
Ki [1]: 42.7 µM (inactive)

COc1ccc(-c2nnc(-c3ccc(Br)o3)o2)cc1OC
IC50 [2]: > 93.1 µM (not active) | IC50 [3]: > 138 µM (inactive) | IC50 [4]: > 100 µM (inactive) | IC50 [5]: 4.59 µM (active)

O=C(O)CCN1C(=O)c2ccc(NC(=O)c3ccco3)cc2C1=O
IC50 [6]: > 83.2 µM (inactive) | IC50 [7]: > 109 µM (inactive)

COc1cccc2c(O)c(C(=O)NCc3cccs3)cnc12
IC50 [2]: 18.9 µM (not active) | AC50 [8]: 1.78 µM (inconclusive)

CC(=O)Nc1cccc2c1C(=O)N(c1ccc(C)cc1)C2=O
EC50 [9]: 1.09 µM (active)

CC(C)c1ccc(-n2nc3ccc(N)cc3n2)cc1
EC50 [10]: > 67.6 µM (inactive) | EC50 [11]: > 67.6 µM (inactive)

CCOc1c(Cl)cc(C(=O)Nc2cccc(C(=O)O)c2)cc1Cl
IC50 [6]: > 83.2 µM (inactive) | IC50 [7]: > 109 µM (inactive)

Cc1ccc(NC(=O)C2C(=O)N(CCO)C3(C)CC2c2ccccc2O3)cc1 (stereo not given)
Ki [1]: > 66.7 µM (inactive)

Cc1cc(C)cc(COn2ccnc2)c1
IC50 [6]: > 83.4 µM (inactive) | IC50 [7]: > 109 µM (inactive)

Cc1nc(N)nc(Nc2ccc(Cl)cc2)c1Br
EC50 [9]: 0.351 µM (active)

Cc1ccc2c(c1)Cc1nc3ccccc3nc1-2
EC50 [10]: > 67.6 µM (inactive) | EC50 [11]: > 67.6 µM (inactive)

COc1cccc(NC(=O)c2ccncc2)c1
IC50 [6]: > 83.4 µM (inactive) | IC50 [7]: > 109 µM (inactive)

Oc1ncnc2nn(-c3ccccc3)nc12
EC50 [12]: 4.54 µM (active) | EC50 [13]: > 12 µM (not active) | EC50 [14]: > 120 µM (not active) | EC50 [15]: < 100 nM (active) | EC50 [16]: > 120 µM (not active) | EC50 [17]: > 12 µM (not active)

CCc1ccc(OCC(=O)NCC(c2ccc(Cl)cc2)N2CCCCC2)cc1 (stereo not given)
AC50 [18]: 9.03 µM (active) | AC50 [19]: 28.4 µM (active) | AC50 [20]: 4.51 µM (active) | AC50 [21]: 3.95 µM (active) | AC50 [22]: 8.41 µM (active)

CC(=O)Nc1cccc(OCC(=O)Nc2ccc(F)cc2)c1
EC50 [9]: 10.6 µM (not active)

O=C(NCc1nc2ccccc2[nH]1)c1cccs1
IC50 [2]: 43 µM (not active)

O=C(O)CCSc1ccc2ccccc2n1
IC50 [2]: 34.8 µM (not active) | IC50 [3]: > 138 µM (inactive) | IC50 [5]: 3.19 µM (active)

COc1ccc(-c2cn3cccnc3n2)cc1NC(=O)C1CC1
Ki [1]: > 66.7 µM (inactive)

COc1cc(C2NC(=O)NC(C)=C2C(=O)OC2CCCC(C)C2)ccc1O (stereo not given)
IC50 [2]: 39.4 µM (not active)

NC(=O)c1c(Br)n(C2OC(CO)C(O)C2O)c2ncnc(N)c12 (stereo not given)
AC50 [18]: 28 µM (active) | AC50 [19]: 3.1 µM (active) | AC50 [20]: 5 µM (active) | AC50 [21]: 3.32 µM (active) | AC50 [22]: 7.68 µM (active)

CC(=O)Nc1ccc(N(C(=O)CNC(=O)c2ccco2)C(C(=O)NCC2CCCO2)c2ccccc2)cc1 (stereo not given)
IC50 [6]: > 83.3 µM (inactive) | IC50 [7]: > 109 µM (inactive)

CC(C)N1C[C@H](CNCc2ccc(Oc3ccccc3)cc2)Oc2c(NC(=O)c3ccncc3)cccc2C1=O
AC50 [23]: 16.4 nM (active)

CC(C)N1CC[C@@H](CNCc2ccc(Oc3ccccc3)cc2)Oc2c(NC(=O)c3ccncc3)cccc2C1=O
AC50 [23]: 83 nM (active)

Cc1cccc(-c2ccc([C@H]3[C@H](CO)N4CCCCN(C(=O)c5cccnc5)C[C@@H]34)cc2)c1
AC50 [23]: 2300 nM (active)

CCc1cc(/C(Cc2ccc3ccccc3n2)=N\O)c(O)cc1O
EC50 [9]: > 3.39 µM (active)

CC(=O)SCC(=O)/N=c1\sc2cc(F)ccc2n1C
Ki [1]: 22.8 µM (inactive)

Cc1ccc(-c2nc(N/N=C/c3ccncc3)c3ccccc3n2)cc1
EC50 [10]: > 67.5 µM (inactive) | EC50 [24]: 59.3 µM (active) | EC50 [25]: 43.7 µM (active) | EC50 [11]: > 67.5 µM (inactive) | EC50 [26]: 158 nM (active) | EC50 [27]: > 50 µM (not active) | EC50 [28]: 209 nM (active) | EC50 [29]: 7.97 µM (active)
